Measurements taken from BindingDB's records for doi:10.7270/Q2513WMG (The Scripps Research Institute Molecular Screening Center, 2009).

Target: Transitional endoplasmic reticulum ATPase (Homo sapiens, UniProt P55072, C522A)
Test: C522A mutant p97 ATPase inhibitors, dose response, counter-screen for p97 inhibitor project, biochemical, luminescence (AID 1544)

Transitional endoplasmic reticulum ATPase, sequence (P55072 2-806 C522A limits assumed): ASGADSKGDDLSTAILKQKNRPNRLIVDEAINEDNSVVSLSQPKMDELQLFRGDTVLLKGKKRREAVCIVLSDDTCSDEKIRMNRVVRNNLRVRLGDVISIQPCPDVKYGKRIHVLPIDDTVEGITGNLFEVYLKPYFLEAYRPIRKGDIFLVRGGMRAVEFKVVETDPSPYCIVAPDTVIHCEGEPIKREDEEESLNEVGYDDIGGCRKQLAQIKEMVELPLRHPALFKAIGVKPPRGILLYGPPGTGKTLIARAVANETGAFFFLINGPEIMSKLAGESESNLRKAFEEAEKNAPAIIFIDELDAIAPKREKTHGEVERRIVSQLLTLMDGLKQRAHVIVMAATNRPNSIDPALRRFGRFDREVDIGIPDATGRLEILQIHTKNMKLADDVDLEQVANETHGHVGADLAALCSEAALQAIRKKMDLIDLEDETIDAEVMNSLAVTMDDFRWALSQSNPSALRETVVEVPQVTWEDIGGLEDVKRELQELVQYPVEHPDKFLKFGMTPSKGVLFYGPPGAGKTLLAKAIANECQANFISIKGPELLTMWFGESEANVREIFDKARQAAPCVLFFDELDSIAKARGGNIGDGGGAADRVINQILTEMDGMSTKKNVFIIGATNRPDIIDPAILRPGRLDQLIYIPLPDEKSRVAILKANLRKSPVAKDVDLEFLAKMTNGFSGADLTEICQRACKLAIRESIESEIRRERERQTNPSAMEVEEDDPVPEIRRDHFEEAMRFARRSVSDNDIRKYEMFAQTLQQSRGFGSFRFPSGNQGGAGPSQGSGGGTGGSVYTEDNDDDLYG

SMILES	IC50 [µM]
NS(=O)(=O)c1ccc(N=NCc2ccc(O)c(O)c2O)c([N+](=O)[O-])c1 [4-[[(E)-(2,3-dihydroxy-4-oxo-1-cyclohexa-2,5-dienylidene)methyl]hydrazo]-3-nitrobenzenesulfonamide]	> 50
CN(C)[C@@H]1C(=O)C(C(N)=O)C(=O)[C@@]2(O)C(=O)C3C(=O)c4c(O)cccc4[C@@](C)(O)[C@H]3[C@H](O)[C@@H]12 (stereo partly drawn) [(2E,4S,4aR,5S,5aR,6S,12aS)-2-[azanyl(oxidanyl)methylidene]-4-(dimethylamino)-6-methyl-5,6,10,11,12a-pentakis(oxidanyl)-4,4a,5,5a-tetrahydrotetracene-1,3,12-trione]	> 50
Cc1ccc(C)c(SCC(=O)OCC(=O)C(C#N)c2nc3ccccc3[nH]2)c1 (configuration not stated) [MLS000392255]	> 50

Continued, values first:

IC50 [µM]	SMILES
> 50	On1[o+]nc2c1CCc1nc(-c3ccccc3)[n-]c1-2 [3-oxidanidyl-7-phenyl-4,5-dihydro-1H-imidazo[4,5-g][2,1,3]benzoxadiazol-3-ium]
> 50	COc1ccc(CN=Nc2nnc(-c3ccccc3)c(=O)[nH]2)cc1 [4-methoxybenzaldehyde (5-oxo-6-phenyl-4,5-dihydro-1,2,4-triazin-3-yl)hydrazone]
> 50	Cc1ccc(SCC(=O)C(C#N)c2nc3ccccc3s2)cc1 (configuration not stated) [(2Z)-2-(3H-1,3-benzothiazol-2-ylidene)-3-keto-4-(p-tolylthio)butyronitrile]
> 50	Oc1ccc(CN=Nc2ccnc3cc(Cl)ccc23)cc1O [(4Z)-4-[[2-(7-chloroquinolin-4-yl)hydrazinyl]methylidene]-2-hydroxycyclohexa-2,5-dien-1-one]
